Source: PMC8286840, “Identifying SARS-CoV-2 antiviral compounds by screening for small molecule inhibitors of Nsp3 papain-like protease” (Biochemical Journal, 2021)
Structures can show the parent of a compound that is named as a salt. Where two headings read alike, the source gives them in different places.

Columns and labels:
[1] = target: T1, SARS-CoV-2 PLpro (nsp3 1564–1878) (Severe acute respiratory syndrome coronavirus 2, UniProt P0DTD1); experiment: biochemical; parameters: FRET-quenched peptide (Pro3) cleavage by PLpro, 10 min pre-incubation, slope over 20 min, normalised to no-compound control; conditions: low concentration screen, read-out: % of control remaining
[2] = target: T1, SARS-CoV-2 PLpro (nsp3 1564–1878); experiment: biochemical; parameters: FRET-quenched peptide (Pro3) cleavage by PLpro, 10 min pre-incubation, slope over 20 min, normalised to no-compound control; conditions: high concentration screen, read-out: % of control remaining

O=C(CCCN1CC=C(n2c(=O)[nH]c3ccccc32)CC1)c1ccc(F)cc1 [Droperidol]
remaining activity at 1.25 µM ([1]; Well no.=493): 105% | remaining activity at 1.25 µM ([1]; Well no.=7382): 97.2% | remaining activity at 3.75 µM ([2]; Well no.=493): 106% | remaining activity at 3.75 µM ([2]; Well no.=7382): 101%

C[C@]12CCC(=O)C=C1[C@@H]1C[C@@H]1[C@H]1[C@@H]3[C@@H]4C[C@@H]4[C@@]4(CCC(=O)O4)[C@@]3(C)CC[C@@H]12 [Drospirenone]
remaining activity at 1.25 µM ([1]; Well no.=5235): 99.4% | remaining activity at 3.75 µM ([2]; Well no.=5235): 102%

Cc1cc(Cl)ccc1OCCCC(=O)NO [Droxinostat]
remaining activity at 1.25 µM ([1]; Well no.=5239): 101% | remaining activity at 3.75 µM ([2]; Well no.=5239): 96.2%

CS(=O)(=O)c1ccc(-c2cc(Br)sc2-c2ccc(F)cc2)cc1 [DuP 697]
remaining activity at 1.25 µM ([1]; Well no.=499): 105% | remaining activity at 3.75 µM ([2]; Well no.=499): 107%

COc1c2c(nc3ccccc13)OC(C(C)(O)CO)C2 (stereo not drawn) [Dubinidine]
remaining activity at 1.25 µM ([1]; Well no.=486): 106% | remaining activity at 1.25 µM ([1]; Well no.=3115): 102% | remaining activity at 3.75 µM ([2]; Well no.=486): 105% | remaining activity at 3.75 µM ([2]; Well no.=3115): 104%

OC[C@@H](O)[C@H](O)[C@H](O)[C@@H](O)CO [Dulcite]
remaining activity at 1.25 µM ([1]; Well no.=6883): 99.2% | remaining activity at 3.75 µM ([2]; Well no.=6883): 94.4%

C[C@]12C=CC(=O)N[C@@H]1CC[C@@H]1[C@@H]2CC[C@]2(C)[C@@H](C(=O)Nc3cc(C(F)(F)F)ccc3C(F)(F)F)CC[C@@H]12 [Dutasteride]
remaining activity at 1.25 µM ([1]; Well no.=5107): 106% | remaining activity at 3.75 µM ([2]; Well no.=5107): 107%

CCCCOc1ccc(C(=O)CCN2CCCCC2)cc1 [Dyclonine (hydrochloride)]
remaining activity at 1.25 µM ([1]; Well no.=8318): 95.9% | remaining activity at 3.75 µM ([2]; Well no.=8318): 94.4%

CCCCOc1ccc(C(=O)CCN2CCCCC2)cc1 [Dyclonine HCl]
remaining activity at 1.25 µM ([1]; Well no.=5050): 103% | remaining activity at 3.75 µM ([2]; Well no.=5050): 101%

Cn1c(=O)c2c(ncn2CC(O)CO)n(C)c1=O (stereo not drawn) [Dyphylline]
remaining activity at 1.25 µM ([1]; Well no.=8092): 93.8% | remaining activity at 3.75 µM ([2]; Well no.=8092): 95.3%

COc1cc2c3cc1Oc1c(OC)c(OC)cc4c1[C@@H](Cc1ccc(OC(=O)c5ccc([N+](=O)[O-])cc5)c(c1)Oc1ccc(cc1)C[C@@H]3N(C)CC2)N(C)CC4 [E6 Berbamine]
remaining activity at 1.25 µM ([1]; Well no.=3237): 97.5% | remaining activity at 3.75 µM ([2]; Well no.=3237): 95%

C[C@H](NC(=O)c1c(C(F)F)nn(C)c1Oc1cccc(C(F)(F)F)c1)c1ccc(C(=O)O)cc1 [E7046]
remaining activity at 1.25 µM ([1]; Well no.=8441): 94.7% | remaining activity at 3.75 µM ([2]; Well no.=8441): 94.6%

COc1cc2nccc(Oc3ccc(NC(=O)NC4CC4)c(Cl)c3)c2cc1C(N)=O [E7080]
remaining activity at 1.25 µM ([1]; Well no.=2981): 98% | remaining activity at 3.75 µM ([2]; Well no.=2981): 98.1%

NC(N)=NCCC[C@H](NC(=O)c1sccc1NS(=O)(=O)c1cccc2nsnc12)C(=O)O [EG00229]
remaining activity at 1.25 µM ([1]; Well no.=8174): 101% | remaining activity at 3.75 µM ([2]; Well no.=8174): 96.8%

O=C(Nc1cccc(Nc2cc(Nc3cccc(C(F)(F)F)c3)ncn2)c1)C1CC1 [EGFR Inhibitor]
remaining activity at 1.25 µM ([1]; Well no.=2403): 106% | remaining activity at 3.75 µM ([2]; Well no.=2403): 103%

COc1cc2ncnc(Nc3ccc(OCc4ccccc4)cc3)c2cc1OC [EGFR/ErbB-2 Inhibitor]
remaining activity at 1.25 µM ([1]; Well no.=2373): 95.9% | remaining activity at 3.75 µM ([2]; Well no.=2373): 97.2%

CC#CC(=O)Nc1cc2c(Nc3ccc(F)c(Cl)c3)ncnc2cn1 [EGFR/ErbB-2/ErbB-4 Inhibitor]
remaining activity at 1.25 µM ([1]; Well no.=2405): 102% | remaining activity at 3.75 µM ([2]; Well no.=2405): 105%

O=c1cc(CN2CCOCC2)occ1OCCCCCSc1ccnc2cc(C(F)(F)F)ccc12 [EHT 1864]
remaining activity at 1.25 µM ([1]; Well no.=8435): 93.5% | remaining activity at 3.75 µM ([2]; Well no.=8435): 90.8%

CCn1c2ccccc2c2cc(Nc3ccnc(NCCCN4CCOCC4)n3)ccc21 [EHop-016]
remaining activity at 1.25 µM ([1]; Well no.=6234): 98.3% | remaining activity at 3.75 µM ([2]; Well no.=6234): 97.9%

Cc1[nH]c2ccc(Cl)cc2c1C1=CCNCC1 [EMD386088]
remaining activity at 1.25 µM ([1]; Well no.=5430): 95.7% | remaining activity at 3.75 µM ([2]; Well no.=5430): 97.4%

Cc1cc(Nc2cc(N3CCN(C)CC3)nc(/C=C/c3ccccc3)n2)n[nH]1 [ENMD-2076 L-(+)-Tartaric acid]
remaining activity at 1.25 µM ([1]; Well no.=5012): 101% | remaining activity at 3.75 µM ([2]; Well no.=5012): 89.1%

Cc1cc(Nc2cc(N3CCN(C)CC3)nc(/C=C/c3ccccc3)n2)n[nH]1 [ENMD-2076]
remaining activity at 1.25 µM ([1]; Well no.=5093): 102% | remaining activity at 3.75 µM ([2]; Well no.=5093): 105%

Cc1ccccc1C(=O)c1ccc(Nc2ccc(Br)cc2N)cc1Cl [EO 1428 - (2-Methylphenyl)-[4-[(2-amino-4-bromophenyl)amino]-2-chlorophenyl]methanone]
remaining activity at 1.25 µM ([1]; Well no.=2634): 87.4% | remaining activity at 3.75 µM ([2]; Well no.=2634): 88.7%

CC(C)[C@H](NC(=O)OCc1ccccc1)C(=O)N[C@@H](CC(=O)O)C(=O)CF [EP1013]
remaining activity at 1.25 µM ([1]; Well no.=6886): 96.4% | remaining activity at 3.75 µM ([2]; Well no.=6886): 96.6%

Cc1ccc2c(=O)c3ccccc3n(CCCN)c2c1C [ER 27319 maleate - 10-(3-Aminopropyl)-3,4-dimethyl-9(10H)-acridinone maleate]
remaining activity at 1.25 µM ([1]; Well no.=2536): 98.5% | remaining activity at 3.75 µM ([2]; Well no.=2536): 99.3%

Nc1[nH]nc2nnc(-c3c(-c4ccccc4)nn4ccccc34)cc12 [ERK Inhibitor II, FR180204]
remaining activity at 1.25 µM ([1]; Well no.=2454): 103% | remaining activity at 3.75 µM ([2]; Well no.=2454): 103%

O=c1[nH][nH]c2nnc(-c3c(-c4ccccc4)nn4ccccc34)cc12 [ERK Inhibitor II, Negative control]
remaining activity at 1.25 µM ([1]; Well no.=2456): 98.3% | remaining activity at 3.75 µM ([2]; Well no.=2456): 102%

N/C(=N\N=C\c1ccc(-c2cccc([N+](=O)[O-])c2)o1)N[N+](=O)[O-] [ERK Inhibitor III]
remaining activity at 1.25 µM ([1]; Well no.=2422): 101% | remaining activity at 3.75 µM ([2]; Well no.=2422): 104%

CCN(N=O)c1ccc(O)c(O)c1 [ET-3,4-dephostatin]
remaining activity at 1.25 µM ([1]; Well no.=598): 100% | remaining activity at 3.75 µM ([2]; Well no.=598): 102%

CCCCCCCCCCCCCCCCCCOCC(COP(=O)([O-])OCC[N+](C)(C)C)OC (stereo not drawn) [ET-18-OCH3]
remaining activity at 1.25 µM ([1]; Well no.=502): 104% | remaining activity at 3.75 µM ([2]; Well no.=502): 102%

CC(C)(CCCCCC(O)CCCCCC(C)(C)C(=O)O)C(=O)O [ETC-1002]
remaining activity at 1.25 µM ([1]; Well no.=8628): 101% | remaining activity at 3.75 µM ([2]; Well no.=8628): 98.8%

CC(C)(C#N)c1ccc(N2C(=O)OCc3cnc4ccc(-c5cnc6ccccc6c5)cc4c32)cc1 [ETP-46464]
remaining activity at 1.25 µM ([1]; Well no.=5557): 101% | remaining activity at 3.75 µM ([2]; Well no.=5557): 97.9%

NC(=O)C1CCCc2c1[nH]c1ccc(Cl)cc21 (stereo not drawn) [EX 527]
remaining activity at 1.25 µM ([1]; Well no.=5287): 99% | remaining activity at 3.75 µM ([2]; Well no.=5287): 97.8%

CC[C@@H](C)[C@@H](O)[C@H](C)C(=O)[C@H](C)/C=C(\C)C[C@H](C)[C@@H]1OC(=O)[C@H]1CC [Ebelactone B]
remaining activity at 1.25 µM ([1]; Well no.=3269): 103% | remaining activity at 3.75 µM ([2]; Well no.=3269): 104%
